#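 Cultured in 96-well plates, cells were exposed to test compound for 48 hours across five concentrations. At the TGI there is no net growth.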
# Tests used:
# Experiment in all cases: inhibition of tumour cell growth, NCI panel, 48 h
# [1] = test system: DLD-1 colon
# [2] = test system: SW-620 colon
# [3] = test system: U251 CNS
# [4] = test system: UACC-62 melanoma
# [5] = test system: NCI-H522 lung
# [6] = test system: XF 498 CNS
# [7] = test system: SK-MEL-5 melanoma
# [8] = test system: CCRF-CEM leukemia
# [9] = test system: OVCAR-4 ovarian
# [10] = test system: OVCAR-5 ovarian
# [11] = test system: TK-10 renal
# [12] = test system: SN12C renal
# [13] = test system: SK-MEL-28 melanoma
# [14] = test system: NCI-H226 lung
# [15] = test system: HOP-62 NSCLC
# [16] = test system: K-562 leukemia
# [17] = test system: UO-31 renal
# [18] = test system: A549 NSCLC
# [19] = test system: MALME-3M melanoma
# [20] = test system: OVCAR-3 ovarian
# [21] = test system: HOP-92 NSCLC
# [22] = test system: HCC-2998 colon
# [23] = test system: KM20L2 colon
# [24] = test system: SF-268 CNS
# [25] = test system: M14 melanoma
# [26] = test system: KM12 colon
# [27] = test system: MOLT-4 leukemia
# [28] = test system: NCI-H23 lung
# [29] = test system: HCT-116 colon
# [30] = test system: HL-60(TB) leukemia
# [31] = test system: IGROV1 ovarian
# [32] = test system: OVCAR-8 ovarian
# [33] = test system: 786-0 renal
# [34] = test system: SNB-75 CNS
# [35] = test system: SR leukemia
# [36] = test system: CAKI-1 renal
# [37] = test system: HT29 colon
# [38] = test system: SK-MEL-2 melanoma
# [39] = test system: ACHN renal
# [40] = test system: RPMI-8226 leukemia
# [41] = test system: SF-295 CNS
# [42] = test system: SNB-19 CNS
# [43] = test system: LXFL 529 NSCLC
# [44] = test system: SNB-78 CNS
# [45] = test system: NCI-H460 lung
# [46] = test system: SK-OV-3 ovarian
# [47] = test system: A498 renal
# [48] = test system: COLO 205 colon
# [49] = test system: EKVX NSCLC
# [50] = test system: DMS 114 small cell lung
# [51] = test system: UACC-257 melanoma
# [52] = test system: M19-MEL melanoma
# [53] = test system: SF-539 CNS
# [54] = test system: DMS 273 small cell lung
# [55] = test system: HCT-15 colon
# [56] = test system: HOP-18 NSCLC
# [57] = test system: LOX IMVI melanoma
# [58] = test system: RXF 393 renal
smiles,measurement,setting,value
CCN(CC)c1ccc(N=Nc2ccc(-c3nc4cccnc4s3)cc2)cc1,TGI,[1],> 100 µM
same,TGI,[2],> 100 µM
same,TGI,[3],> 100 µM
same,TGI,[4],> 100 µM
same,TGI,[5],> 100 µM
same,TGI,[6],72.1 µM
same,TGI,[7],> 100 µM
same,TGI,[8],> 100 µM
same,TGI,[9],> 100 µM
same,TGI,[10],> 100 µM
same,TGI,[11],> 100 µM
same,TGI,[12],> 100 µM
same,TGI,[13],> 100 µM
same,TGI,[14],> 100 µM
same,TGI,[15],> 100 µM
same,TGI,[16],> 100 µM
same,TGI,[17],> 100 µM
same,TGI,[18],> 100 µM
same,TGI,[19],> 100 µM
same,TGI,[20],> 100 µM
same,TGI,[21],> 100 µM
same,TGI,[22],> 100 µM
same,TGI,[23],> 100 µM
same,TGI,[24],> 100 µM
same,TGI,[25],> 100 µM
same,TGI,[26],> 100 µM
same,TGI,[27],> 100 µM
same,TGI,[28],> 100 µM
same,TGI,[29],> 100 µM
same,TGI,[30],> 100 µM
same,TGI,[31],> 100 µM
same,TGI,[32],> 100 µM
same,TGI,[33],> 100 µM
same,TGI,[34],98.9 µM
same,TGI,[35],> 100 µM
same,TGI,[36],> 100 µM
same,TGI,[37],> 100 µM
same,TGI,[38],> 100 µM
same,TGI,[39],> 100 µM
same,TGI,[40],> 100 µM
same,TGI,[41],> 100 µM
same,TGI,[42],> 100 µM
same,TGI,[43],> 100 µM
same,TGI,[44],> 100 µM
same,TGI,[45],> 100 µM
same,TGI,[46],> 100 µM
same,TGI,[47],> 100 µM
same,TGI,[48],> 100 µM
same,TGI,[49],> 100 µM
same,TGI,[50],> 100 µM
same,TGI,[51],> 100 µM
CCCC(O)c1ccc2[nH]c3c(C)cc([N+](=O)[O-])c(C)c3c2c1 (stereo unspecified),TGI,[1],> 100 µM
same,TGI,[52],> 100 µM
same,TGI,[2],> 100 µM
same,TGI,[5],> 100 µM
same,TGI,[6],> 100 µM
same,TGI,[7],> 100 µM
same,TGI,[8],> 100 µM
same,TGI,[9],> 100 µM
same,TGI,[10],> 100 µM
same,TGI,[11],> 100 µM
same,TGI,[12],> 100 µM
same,TGI,[13],> 100 µM
same,TGI,[53],> 100 µM
same,TGI,[14],> 100 µM
same,TGI,[15],> 100 µM
same,TGI,[16],> 100 µM
same,TGI,[17],> 100 µM
same,TGI,[18],> 100 µM
same,TGI,[19],> 100 µM
same,TGI,[20],> 100 µM
same,TGI,[54],> 100 µM
same,TGI,[22],> 100 µM
same,TGI,[24],> 100 µM
same,TGI,[25],> 100 µM
same,TGI,[26],> 100 µM
same,TGI,[27],> 100 µM
same,TGI,[28],> 100 µM
same,TGI,[29],> 100 µM
same,TGI,[55],> 100 µM
same,TGI,[30],> 100 µM
same,TGI,[32],> 100 µM
same,TGI,[33],> 100 µM
same,TGI,[34],> 100 µM
same,TGI,[35],> 100 µM
same,TGI,[36],> 100 µM
same,TGI,[37],> 100 µM
same,TGI,[38],> 100 µM
same,TGI,[39],> 100 µM
same,TGI,[40],> 100 µM
same,TGI,[41],> 100 µM
same,TGI,[42],> 100 µM
same,TGI,[44],> 100 µM
same,TGI,[45],> 100 µM
same,TGI,[56],> 100 µM
same,TGI,[57],> 100 µM
same,TGI,[48],> 100 µM
same,TGI,[49],> 100 µM
same,TGI,[50],> 100 µM
same,TGI,[51],> 100 µM
O=C1OCc2nc3c(c(-c4ccccc4C(F)(F)F)c21)C(=O)OC3,TGI,[1],> 100 µM
same,TGI,[52],> 100 µM
same,TGI,[2],> 100 µM
same,TGI,[3],> 100 µM
same,TGI,[4],> 100 µM
same,TGI,[5],> 100 µM
same,TGI,[7],> 100 µM
same,TGI,[8],> 100 µM
same,TGI,[10],> 100 µM
same,TGI,[11],> 100 µM
same,TGI,[12],> 100 µM
same,TGI,[13],> 100 µM
same,TGI,[53],> 100 µM
same,TGI,[15],> 100 µM
same,TGI,[16],> 100 µM
same,TGI,[17],> 100 µM
same,TGI,[18],> 100 µM
same,TGI,[19],> 100 µM
same,TGI,[20],> 100 µM
same,TGI,[21],> 100 µM
same,TGI,[54],> 100 µM
same,TGI,[22],> 100 µM
same,TGI,[23],> 100 µM
same,TGI,[24],> 100 µM
same,TGI,[25],> 100 µM
same,TGI,[26],> 100 µM
same,TGI,[27],> 100 µM
same,TGI,[28],> 100 µM
same,TGI,[58],> 100 µM
same,TGI,[29],> 100 µM
same,TGI,[55],> 100 µM
same,TGI,[30],> 100 µM
same,TGI,[31],> 100 µM
same,TGI,[32],> 100 µM
same,TGI,[33],> 100 µM
same,TGI,[35],> 100 µM
same,TGI,[38],> 100 µM
same,TGI,[39],> 100 µM
same,TGI,[40],> 100 µM
same,TGI,[41],> 100 µM
same,TGI,[42],> 100 µM
same,TGI,[43],> 100 µM
same,TGI,[44],> 100 µM
same,TGI,[45],> 100 µM
same,TGI,[46],> 100 µM
same,TGI,[47],> 100 µM
same,TGI,[56],> 100 µM
same,TGI,[57],> 100 µM
same,TGI,[48],> 100 µM
same,TGI,[49],> 100 µM
same,TGI,[50],> 100 µM
same,TGI,[51],> 100 µM
COc1cccc(NC(=O)/C(CS(=O)(=O)CCC(C(C)=O)C(C)=O)=N\NC(C)(C)C)c1,TGI,[1],> 100 µM
same,TGI,[2],> 100 µM
same,TGI,[3],> 100 µM
same,TGI,[4],> 100 µM
same,TGI,[5],> 100 µM
same,TGI,[7],> 100 µM
same,TGI,[8],> 100 µM
same,TGI,[9],> 100 µM
same,TGI,[10],> 100 µM
same,TGI,[11],> 100 µM
same,TGI,[12],> 100 µM
same,TGI,[13],> 100 µM
same,TGI,[53],> 100 µM
same,TGI,[14],> 100 µM
same,TGI,[15],> 100 µM
same,TGI,[16],> 100 µM
same,TGI,[17],> 100 µM
same,TGI,[18],> 100 µM
same,TGI,[19],> 100 µM
same,TGI,[20],> 100 µM
same,TGI,[21],> 100 µM
same,TGI,[54],> 100 µM
same,TGI,[22],> 100 µM
same,TGI,[23],> 100 µM
same,TGI,[24],> 100 µM
same,TGI,[25],> 100 µM
same,TGI,[26],> 100 µM
same,TGI,[27],> 100 µM
same,TGI,[28],> 100 µM
same,TGI,[58],> 100 µM
same,TGI,[29],> 100 µM
same,TGI,[55],> 100 µM
same,TGI,[30],> 100 µM
same,TGI,[31],> 100 µM
same,TGI,[32],> 100 µM
same,TGI,[33],> 100 µM
same,TGI,[34],> 100 µM
same,TGI,[36],> 100 µM
same,TGI,[37],> 100 µM
same,TGI,[38],> 100 µM
same,TGI,[39],> 100 µM
same,TGI,[40],> 100 µM
same,TGI,[42],> 100 µM
same,TGI,[43],> 100 µM
same,TGI,[44],> 100 µM
same,TGI,[45],> 100 µM
same,TGI,[46],> 100 µM
same,TGI,[47],> 100 µM
same,TGI,[56],> 100 µM
same,TGI,[57],> 100 µM
same,TGI,[48],> 100 µM
same,TGI,[49],> 100 µM
same,TGI,[50],> 100 µM
same,TGI,[51],> 100 µM
